From ChEMBL document CHEMBL5247641, “Discovery of Potent DYRK2 Inhibitors with High Selectivity, Great Solubility, and Excellent Safety Properties for the Treatment of Prostate Cancer” (J Med Chem, 2023)
Calls of active or inactive are those of the source. No cut-off for these calls is given here.

How the values were obtained:
[1] = Metabolic stability in human liver microsomes assessed as intrinsic clearance in presence of NADPH incubated up to 60 mins by LC-MS/MS analysis; assay type: ADME, Microsome; details: read-out: CLH
CWR22R [2] = experiment: Antimigratory activity against human 22Rv1 cells assessed as inhibition of cell migration at 1 to 8 uM incubated for 24 hrs by transwell migration assay; assay type: functional, cell-based; details: dose 1-8 µM
DU-145 [3] = experiment: Antitumor activity against human DU-145 xenografted in BALB/c nude mouse assessed as tumor growth inhibition at 200 mg/kg,po administrated once daily for 21 days; assay type: functional, organism-based; details: time 21.0 day
DU-145 [4] = experiment: Antitumor activity against human DU-145 xenografted in BALB/c nude mouse as upregulation of cleaved PARP level in tumor at 100 to 200 mg/kg,po administrated once daily for 21 days by Western blot analysis; assay type: functional, organism-based; details: dose 100-200 mg/kg, time 21.0 day
DU-145 [5] = experiment: Induction of cell cycle arrest in human DU-145 cells assessed as accumulation of cells at G2 phase at 4 uM incubated for 24 hrs by propidium iodide based flow cytometric analysis (Rvb= 17.52%); assay type: functional
DU-145 [6] = experiment: Antitumor activity against human DU-145 xenografted in BALB/c nude mouse as downregulation of p-4E-BP1 level in tumor at 100 to 200 mg/kg,po administrated once daily for 21 days by Western blot analysis; assay type: functional, organism-based; details: dose 100-200 mg/kg, time 21.0 day
CWR22R [7] = experiment: Induction of cell cycle arrest in human 22Rv1 cells assessed as accumulation of cells at G1 phase at 4 uM incubated for 24 hrs by propidium iodide based flow cytometric analysis (Rvb= 55.28%); assay type: functional

SMILES: Cl.O=C(c1ccc(Nc2ncc(F)c(-c3ccc4scnc4c3)n2)nc1)N1CCNCC1
- CLint scaled [1]: 0.96 L/h/kg
- Activity (CWR22R [2]): Active
- Activity (DU-145 [3]): Active
- Activity (DU-145 [4]): Active
- Activity (DU-145 [5]): 12.12%
- Activity (DU-145 [6]): Active
- Activity (CWR22R [7]): 66.73%
